These results are taken from ChEMBL document CHEMBL4476887, “Lysyl oxidase-like 2 inhibitors and uses thereof” (2018).

pIC50: −log10 of the molar value. Bounds are passed on as bounds.

The assay has as its target T1, Lysyl oxidase homolog 2 (Homo sapiens, UniProt Q9Y4K0).
T1 sequence (Q9Y4K0 whole entry): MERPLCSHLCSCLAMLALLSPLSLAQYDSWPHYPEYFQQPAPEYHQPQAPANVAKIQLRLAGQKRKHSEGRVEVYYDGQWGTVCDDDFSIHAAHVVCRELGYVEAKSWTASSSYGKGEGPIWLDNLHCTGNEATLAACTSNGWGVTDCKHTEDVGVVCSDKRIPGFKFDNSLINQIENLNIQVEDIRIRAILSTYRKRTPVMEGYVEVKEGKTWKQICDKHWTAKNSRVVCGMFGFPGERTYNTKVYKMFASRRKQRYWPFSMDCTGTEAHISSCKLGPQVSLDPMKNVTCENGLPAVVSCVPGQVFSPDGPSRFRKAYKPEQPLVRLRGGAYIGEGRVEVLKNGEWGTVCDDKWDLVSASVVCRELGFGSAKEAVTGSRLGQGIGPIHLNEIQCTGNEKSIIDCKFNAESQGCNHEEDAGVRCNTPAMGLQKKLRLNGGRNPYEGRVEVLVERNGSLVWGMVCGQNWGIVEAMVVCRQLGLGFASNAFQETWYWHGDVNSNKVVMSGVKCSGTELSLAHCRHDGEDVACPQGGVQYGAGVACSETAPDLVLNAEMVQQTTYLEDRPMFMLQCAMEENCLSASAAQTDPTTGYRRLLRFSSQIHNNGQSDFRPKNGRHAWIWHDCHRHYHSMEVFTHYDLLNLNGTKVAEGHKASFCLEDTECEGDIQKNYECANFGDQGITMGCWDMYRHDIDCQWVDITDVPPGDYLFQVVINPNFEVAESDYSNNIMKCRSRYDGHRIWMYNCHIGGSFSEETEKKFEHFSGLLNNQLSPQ
The assay is described as follows: Inhibition of human LOXL2 expressed in CHO cells incubated for 2 hrs followed by 1,5-Diaminopentane addition by Amplex Red fluorescence based assay. The assay is classed as cell-based.

Broadly, the pIC50 is the IC50 on a negative log10 scale, so that one unit is a factor of ten. Low readings indicate a large IC50, high ones a small IC50. For the compound `NCCc1nc(-c2ccccc2)cs1`, the pIC50 is 6.00 to 6.52.

As for `NCc1nc2ccccc2s1`, the pIC50 was above 6.52.

Take `NCc1cc2ccccc2s1`: the pIC50 was 6.00 to 6.52.

`NCCc1nc2ccccc2s1` had a negative-log IC50 (pIC50) above 6.52.

`NCc1nc2ccccc2[nH]1` gave a pIC50 above 6.52.

Consider `NCc1cc2cc(Br)ccc2o1`, for which the negative logarithm of the IC50 (pIC50) is below 6.00.

`NCCc1nc2ccc(F)cc2[nH]1` showed a pIC50 below 6.00.

With `NCc1cnccn1`, the pIC50 is above 6.52.

For `NCc1cc2ccc(-c3cnc4ccccc4c3)cc2c(=O)[nH]1`, the pIC50 is above 6.52.

`NCCc1nc2cccc(Cl)c2o1` showed a negative logarithm of the IC50 (pIC50) above 6.52.

Turning to `NCCc1cc2ccccc2o1`, the pIC50 is below 6.00.

With `NCc1cc(Oc2cccc(C(=O)Nc3ccccc3)c2)n2nccc2n1`, the pIC50 was 6.00 to 6.52.

Compound `NCCc1nc2cc(Cl)ccc2s1` showed a pIC50 above 6.52.

`NCc1cc2ccc(-c3cncc(C(=O)Nc4ccccc4)c3)cc2s1` gave a pIC50 above 6.52.

Compound `NCCc1cc2ccccc2[nH]1` showed a pIC50 below 6.00.

The compound `NCCc1cc2ccccc2s1` gave a pIC50 below 6.00.

Compound `Cc1cc(Br)cc2cc(CN)oc12` gave a pIC50 above 6.52.

With `CC(C)(C)c1ccc2sc(CN)cc2c1`, the pIC50 was above 6.52.

Regarding `NCc1cc2ccc(Br)cc2c(=O)[nH]1`, the pIC50 is above 6.52.

In turn, `NCc1cc2cc(-c3cccnc3)ccc2[nH]1` gave a pIC50 above 6.52.

The compound `NCc1nc2cc(Cl)ccc2[nH]1` had a negative-log IC50 (pIC50) above 6.52.

The compound `COc1ncccc1-c1ccc2[nH]c(CN)cc2c1` showed a pIC50 of 6.00 to 6.52.

`NCCc1nc2cc(F)ccc2s1` had a pIC50 above 6.52.

With `NCCc1nc2cc(Cl)ccc2o1`, the pIC50 was above 6.52.

In turn, `NCc1cc2ccc(-c3ccc(C(=O)Nc4ccccc4)nc3)cc2s1` had a pIC50 above 6.52.

Regarding `COc1ccc2[nH]c(CN)cc2c1`, the pIC50 was 6.00 to 6.52.

On to `Cn1cc(-c2ccc3[nH]c(CN)cc3c2)cn1`, for which the pIC50 is 6.00 to 6.52.

For `Cc1c(CN)oc2ccc(F)cc12`, the pIC50 was below 6.00.

Take `NCCc1nc2cc(Cl)ccc2[nH]1`: the pIC50 was below 6.00.

Turning to `NCc1ccnc(Oc2cccc(C(=O)Nc3ccccc3)c2)n1`, the pIC50 was 6.00 to 6.52.

In turn, `NCc1cc2ccncc2[nH]1` had a pIC50 above 6.52.

`NCc1cnnc(Oc2cccc(C(=O)Nc3ccccc3)c2)c1` showed a pIC50 above 6.52.

`NCc1cc2c(cn1)ncn2-c1cccc(C(=O)Nc2ccccc2)c1` gave a negative logarithm of the IC50 (pIC50) above 6.52.

In turn, `NCCc1nn2cnnc2s1` gave a negative logarithm of the IC50 (pIC50) below 6.00.

For `NCc1cc2cc(C3CC3)ccc2s1`, the pIC50 was above 6.52.

For the compound `NCc1cc2cc(-c3ccc(OCc4ccccc4)nc3)ccc2[nH]1`, the pIC50 is 6.00 to 6.52.

`NCc1cc2cc(-c3cncc(O)c3)ccc2[nH]1` gave a negative logarithm of the IC50 (pIC50) of 6.00 to 6.52.

In turn, `NCc1nc2cc3ccccc3cc2[nH]1` showed a pIC50 above 6.52.

`NCc1cc2ccccc2c(=O)[nH]1` gave a pIC50 of 6.00 to 6.52.

Turning to `NCc1cc2ccc(C#Cc3ccccc3)cc2c(=O)[nH]1`, the pIC50 is above 6.52.

In turn, `NCc1cc2ccc(Br)cc2s1` showed a pIC50 above 6.52.

Take `Cn1c(CN)cc2ccccc21`: the pIC50 is below 6.00.

The compound `NCC1=CC(=O)c2ccccc2C1=O` had a pIC50 above 6.52.

The compound `NCc1nc2cc(Cl)ccc2s1` gave a negative-log IC50 (pIC50) of 6.00 to 6.52.

`NCc1cc(=O)[nH]c2ccccc12` showed a pIC50 below 6.00.

`NCc1ccnnc1`: the pIC50 is 6.00 to 6.52.

For `NCCc1nc2ccccc2o1`, the pIC50 is 6.00 to 6.52.

As for `NCc1cc(Nc2cccc(C(=O)Nc3ccccc3)c2)n2ccnc2n1`, the pIC50 is above 6.52.

In turn, `NCc1nc2ccccc2o1` had a pIC50 below 6.00.

The compound `NCc1cc2ccc(-c3cncc(C(=O)NCc4ccccc4)c3)cc2s1` showed a pIC50 above 6.52.

`NCc1cc2cc(-c3cccnc3)ccc2s1`: the pIC50 was above 6.52.

For `NCc1cc2cc(F)ccc2[nH]1`, the pIC50 is below 6.00.

In the case of `NCc1cc2c(cn1)ncn2Cc1cccc(C(=O)Nc2ccccc2)c1`, the pIC50 is below 6.00.

Compound `NCc1cccnn1` showed a pIC50 above 6.52.

For `Cc1c(F)ccc2cc(CN)[nH]c12`, the pIC50 was below 6.00.

As to `NCc1ccc2[nH]cnc2c1`, the pIC50 is below 6.00.

For `NCc1sc2ccccc2c1Cl`, the pIC50 is 6.00 to 6.52.

Take `NCc1cc2ncccc2[nH]1`: the pIC50 is above 6.52.

Take `NCc1cc(=O)c2cc(Br)ccc2s1`: the negative-log IC50 (pIC50) is above 6.52.

The compound `NCc1cc2cc(F)ccc2s1` gave a pIC50 above 6.52.

Compound `NCc1nc2cc(Br)cnc2[nH]1` showed a pIC50 above 6.52.

In turn, `C#Cc1ccc2cc(CN)[nH]c(=O)c2c1` gave a pIC50 above 6.52.

The compound `NCc1cc(O)n2nccc2n1` showed a negative-log IC50 (pIC50) of 6.00 to 6.52.

The compound `NCc1cc2cc(-c3ccc(Oc4ccccc4)nc3)ccc2[nH]1` gave a pIC50 above 6.52.

For `COc1ccc(-c2ccc3[nH]c(CN)cc3c2)cn1`, the pIC50 was 6.00 to 6.52.

As to `NCc1cc2ccc(-n3cc(Br)cn3)cc2c(=O)[nH]1`, the pIC50 was above 6.52.

As for `NCc1ccc2ncccc2c1`, the pIC50 was below 6.00.

The compound `NCc1cc2cc(I)ccc2[nH]1` showed a pIC50 above 6.52.

In turn, `NCc1cc2cc(-c3cncc4ccccc34)ccc2[nH]1` gave a pIC50 above 6.52.

`NCCc1nc(-c2ccncc2)cs1` showed a pIC50 of 6.00 to 6.52.

The compound `Cn1cnc2ccc(-c3ccc4[nH]c(CN)cc4c3)cc21` had a pIC50 above 6.52.

`NCc1cc2ccc(-c3cccnc3)cc2s1` had a negative-log IC50 (pIC50) above 6.52.

In turn, `NCc1cc2cc(-c3ccc4nccn4c3)ccc2[nH]1` showed a negative-log IC50 (pIC50) above 6.52.

`COC(=O)c1cncc(-c2ccc3[nH]c(CN)cc3c2)c1` gave a negative logarithm of the IC50 (pIC50) above 6.52.

The compound `NCc1cc2cc(Cl)ccc2[nH]1` showed a negative-log IC50 (pIC50) of 6.00 to 6.52.

`Cc1ccc2[nH]c(CN)cc2c1` showed a pIC50 of 6.00 to 6.52.

Compound `NCc1cc2ccccc2o1` gave a pIC50 of 6.00 to 6.52.

In turn, `NCc1ccc2[nH]ccc2n1` gave a pIC50 below 6.00.

`COc1ccc2cc(CN)[nH]c(=O)c2c1` gave a pIC50 above 6.52.

In turn, `NCc1cc2ccc(-c3ccc(F)cc3)cc2c(=O)[nH]1` showed a pIC50 above 6.52.

For the compound `NCc1cc2cc(Br)ccc2s1`, the pIC50 is above 6.52.

`NCCc1nc2ccccc2[nH]1` gave a negative-log IC50 (pIC50) below 6.00.

Consider `NCc1cc2cc(-c3ccc(F)cc3)ccc2[nH]1`, for which the negative logarithm of the IC50 (pIC50) is above 6.52.

For `NCc1cc2cc(-c3cnc4ccccc4c3)ccc2[nH]1`, the pIC50 was above 6.52.

Compound `CC(C)(C)c1ccc2oc(CN)nc2c1` gave a pIC50 above 6.52.

`NCc1cc2cc(Br)ccc2[nH]1` showed a negative-log IC50 (pIC50) above 6.52.

The compound `NCc1cc(Oc2cccc(C(=O)Nc3ccccc3)c2)n2ccnc2n1` showed a pIC50 above 6.52.

In turn, `NCc1cc2occc2s1` had a pIC50 below 6.00.

`NCc1nc2ncccc2[nH]1` gave a pIC50 above 6.52.

In turn, `NCc1cc2ccc(-c3ccccc3)cc2c(=O)[nH]1` had a pIC50 above 6.52.

Turning to `CC(CN)c1nc2ccccc2s1` (racemic), the pIC50 was 6.00 to 6.52.

For `NCC(O)c1cc2ccccc2s1` (racemic), the pIC50 is below 6.00.

In the case of `NCc1cc2ccccc2[nH]1` [2-INDOLYLMETHANAMINE], the negative logarithm of the IC50 (pIC50) was 6.00 to 6.52.
